Measured values from article PMC10649178, “Exploring the Interactions of Soybean 7S Globulin with Gallic Acid, Chlorogenic Acid and (−)-Epigallocatechin Gallate” (Foods, 2023).
Marks after values point to notes of the source that are not given here. One block for each compound: values may come before it.

Tests used:
[1] = molecular target: T1, soybean 7S globulin (7S; β-conglycinin) (Glycine max, UniProt P0DO16+P11827+P25974); test: isothermal titration calorimetry, one-site model; format: binding; conditions: 10 mM phosphate pH 7.0, 25 °C, 5 mM ligand
T1 construct: gene CG-1; mature trimers of α, α’ and β, 150-180 kDa
T1 sequence (P11827 63-621): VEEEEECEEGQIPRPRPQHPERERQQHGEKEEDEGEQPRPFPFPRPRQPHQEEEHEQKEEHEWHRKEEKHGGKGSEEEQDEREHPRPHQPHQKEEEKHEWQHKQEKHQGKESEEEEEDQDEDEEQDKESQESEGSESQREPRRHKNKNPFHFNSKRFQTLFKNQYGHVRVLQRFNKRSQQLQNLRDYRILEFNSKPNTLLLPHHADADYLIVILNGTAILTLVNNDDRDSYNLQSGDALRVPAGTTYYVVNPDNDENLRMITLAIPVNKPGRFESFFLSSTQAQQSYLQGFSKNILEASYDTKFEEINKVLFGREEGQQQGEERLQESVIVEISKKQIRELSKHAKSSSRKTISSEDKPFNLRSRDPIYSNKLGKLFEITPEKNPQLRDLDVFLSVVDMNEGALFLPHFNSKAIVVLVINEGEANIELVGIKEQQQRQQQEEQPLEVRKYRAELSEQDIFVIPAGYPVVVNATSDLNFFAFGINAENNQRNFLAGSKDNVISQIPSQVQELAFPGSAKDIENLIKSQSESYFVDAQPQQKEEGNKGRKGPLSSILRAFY
T1 sequence (P0DO16 63-605): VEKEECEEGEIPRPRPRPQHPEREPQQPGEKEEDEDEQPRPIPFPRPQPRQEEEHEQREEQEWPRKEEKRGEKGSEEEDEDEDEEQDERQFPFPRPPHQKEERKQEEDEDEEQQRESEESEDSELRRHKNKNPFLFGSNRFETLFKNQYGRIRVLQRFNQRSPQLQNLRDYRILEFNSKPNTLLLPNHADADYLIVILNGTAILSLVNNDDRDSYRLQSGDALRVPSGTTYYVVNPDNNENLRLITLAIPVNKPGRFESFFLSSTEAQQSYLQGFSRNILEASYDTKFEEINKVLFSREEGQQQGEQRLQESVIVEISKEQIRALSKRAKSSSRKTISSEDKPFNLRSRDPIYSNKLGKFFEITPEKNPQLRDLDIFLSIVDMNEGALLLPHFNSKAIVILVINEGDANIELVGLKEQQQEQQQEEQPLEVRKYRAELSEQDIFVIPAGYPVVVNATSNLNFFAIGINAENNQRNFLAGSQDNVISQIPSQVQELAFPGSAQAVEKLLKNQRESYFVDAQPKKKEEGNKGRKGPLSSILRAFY
T1 sequence (P25974 24-439): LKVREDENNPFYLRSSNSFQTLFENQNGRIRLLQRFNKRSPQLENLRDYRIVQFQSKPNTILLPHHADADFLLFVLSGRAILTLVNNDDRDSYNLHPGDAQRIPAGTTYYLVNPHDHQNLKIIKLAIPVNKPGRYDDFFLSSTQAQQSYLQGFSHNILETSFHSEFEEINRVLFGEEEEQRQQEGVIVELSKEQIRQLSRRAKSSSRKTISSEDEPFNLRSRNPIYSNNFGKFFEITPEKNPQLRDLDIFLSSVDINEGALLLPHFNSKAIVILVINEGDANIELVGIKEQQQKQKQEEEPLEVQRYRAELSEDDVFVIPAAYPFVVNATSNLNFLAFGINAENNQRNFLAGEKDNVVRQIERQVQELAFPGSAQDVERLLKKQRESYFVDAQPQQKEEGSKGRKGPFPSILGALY
From the text: isothermal titration calorimetry, one-site model on soybean 7S globulin (7S; β-conglycinin)

[2] = molecular target: T1, soybean 7S globulin (7S; β-conglycinin); test: intrinsic fluorescence quenching, double-logarithmic fit; format: binding; conditions: 10 mM phosphate pH 7.0, 298 K, 10 μM 7S, 0-12 μM ligand
From the text: intrinsic fluorescence quenching, double-logarithmic fit on soybean 7S globulin (7S; β-conglycinin)

- Kd ([1]; 10 μM 7S, N = 7.23 sites): 444 µM
- Ka (10^4 L/mol) ([2]; n = 1.42): 7.44 ± 0.32 (10^4)
Structure (SMILES): O=C(/C=C/c1ccc(O)c(O)c1)O[C@@H]1C[C@](O)(C(=O)O)C[C@@H](O)[C@H]1O [CA, chlorogenic acid]

Structure (SMILES): O=C(O)c1cc(O)c(O)c(O)c1 [GA, gallic acid]
- Kd ([1]; 10 μM 7S, N = 10.0 sites): 720 µM
- Ka (10^4 L/mol) ([2]; n = 1.12): 5.10 ± 0.30 (10^4)

Structure (SMILES): O=C(O[C@@H]1Cc2c(O)cc(O)cc2O[C@@H]1c1cc(O)c(O)c(O)c1)c1cc(O)c(O)c(O)c1 [EGCG, (−)-epigallocatechin gallate]
- Kd ([1]; 5 μM 7S, N = 1.68 sites): 485 µM
- Ka (10^4 L/mol) ([2]; n = 1.25): 6.23 ± 0.30 (10^4)
